Biological target: T1, human GABAA α5β3*γ2s receptors (Homo sapiens, UniProt P18507+P31644)
T1 construct: expressed in transfected cells
Assay: In vitro inhibition of 3H-flumazenil binding, HEK cells expressing the human GABAA α5β3*γ2S receptor
Procedure: When the cultures reach confluency, the DMEM is removed and the cells are washed (10 ml for T175 flasks; 50 ml for roller bottles) once in Dulbecco's Phosphate Buffered Saline (DPBS). Following addition of DPBS to the cultures (10 ml for T175 flasks; 100 ml for roller bottles) for approximately 5 min cells are easily detached from the surface by shaking or tapping the flask gently. The cell suspension is transferred to Falcon tubes and centrifuged at 23,500×g for 10 min at 2° C. The pellet is washed once in 15 ml Tris-citrate buffer (50 mM, pH 7.1) using an Ultra-Turrax homogenizer and centrifuged at 2° C. for 10 min at 27,000×g. The washed pellet is re-suspended in 15 ml Tris-citrate buffer and frozen at −80° C. until the day of the binding experiment.
On the day of the experiment the cell membrane preparation is thawed and centrifuged at 2° C. for 10 min at 27,000×g.
Non-specific binding is determined using clonazepam (1 μM, final concentration). […]
The amount of radioactivity on the filters is determined by conventional liquid scintillation counting using a […]
where B is the binding in percentage of total specific binding; C is the concentration of test compound; and n is the Hill coefficient. […] The IC50 value is calculated from the concentration response curves by the non-linear regression method using the curve-fitting program GraphPad Prism.

T1 sequence (P31644 32-462): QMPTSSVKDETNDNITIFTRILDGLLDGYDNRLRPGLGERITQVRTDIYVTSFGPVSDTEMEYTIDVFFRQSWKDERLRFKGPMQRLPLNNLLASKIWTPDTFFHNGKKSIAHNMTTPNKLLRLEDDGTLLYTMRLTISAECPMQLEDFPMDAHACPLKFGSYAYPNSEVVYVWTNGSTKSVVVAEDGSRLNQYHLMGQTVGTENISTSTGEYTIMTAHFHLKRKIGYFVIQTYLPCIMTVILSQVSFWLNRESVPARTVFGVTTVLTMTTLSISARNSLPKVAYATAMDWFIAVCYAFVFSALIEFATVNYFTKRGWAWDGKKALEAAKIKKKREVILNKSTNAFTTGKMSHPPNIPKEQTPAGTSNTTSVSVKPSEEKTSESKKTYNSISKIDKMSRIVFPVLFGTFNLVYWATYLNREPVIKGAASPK
T1 sequence (P18507 40-467 isoform P18507-1 limits assumed): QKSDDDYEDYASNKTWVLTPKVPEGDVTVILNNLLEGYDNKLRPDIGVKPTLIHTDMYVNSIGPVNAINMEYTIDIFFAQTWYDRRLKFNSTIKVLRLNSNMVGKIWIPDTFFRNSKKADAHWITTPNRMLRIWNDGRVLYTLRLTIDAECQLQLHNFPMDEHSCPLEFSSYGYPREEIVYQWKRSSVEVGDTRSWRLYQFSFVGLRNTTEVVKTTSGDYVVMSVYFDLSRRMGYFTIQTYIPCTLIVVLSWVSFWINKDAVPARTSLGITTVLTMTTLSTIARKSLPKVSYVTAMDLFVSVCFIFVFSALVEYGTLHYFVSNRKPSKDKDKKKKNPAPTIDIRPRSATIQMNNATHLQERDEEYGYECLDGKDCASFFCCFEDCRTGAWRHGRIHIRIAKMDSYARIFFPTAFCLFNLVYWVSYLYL

Ki: 87 nM
SMILES: NC(=O)c1ccc(OCc2c(C(F)F)nnn2-c2ccc(F)cc2)nn1 [Compound 1, 6-[[5-(difluoromethyl)-3-(4-fluorophenyl)triazol-4-yl]methoxy]pyridazine-3-carboxamide]
